According to US20080242594A1, “Methods for Promoting Stem Cell Proliferation and Survival” (priority 2005, published 2008):

What was measured:
Notch1 = assay: Notch activation (Notch1IC / Notch ICD) immunocytochemical detection; type: cell-based, mouse
Source text: Antibodies were used that specifically bind: Notch1IC (Chemicon, 5352), GFP (Molecular Probes, A11122), Oct3/4 (Santa Cruz, sc-5279), SSEA1 and SSEA4 (Developmental Studies HybridomaBank), Tra-1-60 (Chemicon, MAB4360), Tra-1-81 (Chemicon, MAB4381), human nestin (Chemicon, MAB5326), Sox-1 (Gift from Dr. R Lovell-Badge), TH (Pel-Freez, P40101-0), Tuj1 (Covance, MMS-435P), rat nestin (McKay Lab), GFAP (Dako, z0334), CNPase (Chemicon, MAB326), BrdU (Accurate, H5903), DCX (Santa Cruz, sc-8066), Sox2 (R&D, MAB2018), Hu (Molecular Probes, A21271).
To assay for Notch activation, cultures were treated with the Notch ligands for 1 hour and Notch1 activation was detected by immunocytochemical staining of Notch1IC (FIG. 1b).
(§1) It was determined that insulin facilitates Notch cleavage using immunocytochemical detection.

[1] = tested on: mouse fetal central nervous system stem cell cultures; assay: Survival of fetal CNS stem cell cultures with insulin and Dll4; type: cell-based
Protocol: (§2) As there was a tight correlation between the Notch survival pathway and Hes3, it was investigated as to whether Hes3 is a mediator of the Notch pro-survival signalling. It was determined that both insulin and Notch activation promote the survival of foetal and adult neural stem cell cultures and their effects are additive (Tables 8-9).

[2] = tested on: rat adult subventricular zone central nervous system stem cell cultures; assay: Survival of adult SVZ CNS stem cell cultures with insulin and Dll4; type: cell-based
Protocol: as §2

STAT3 = STAT3 phosphorylation (Ser727, Tyr705) immunoblot in CNS stem cells; type: cell-based, mouse
Source text: Ligands that activate JAK/STAT signaling promote astrocytic differentiation of CNS stem cells (Johe et al., Genes Dev 10:3129-40, 1996; Raj an et al., J Neurosci 18:3620-9, 1998; Bonni et al., Science 278:477-83, 1997; Song et al., Nat Neurosci 7:229-35, 2004; He et al., Nat Neurosci 8:616-625, 2005). When applying CNTF to CNS stem cells it was noted that low concentrations of CNTF stimulated survival but not expression of astrocyte specific genes. This is consistent with previous observations of Akt phosphorylation downstream of gp130 activation (Taga et al., Annu Rev Immunol 15:797-819, 1997). […] At high concentrations (20 ng/ml) the phosphorylation of Tyr705 can be blocked by an inhibitor of JAK while allowing a CNTF-induced increase in Ser727 phosphorylation (FIG. 2B) (Thompson et al., Bioorg Med Chem Lett 12:1219-23, 2002).
CNTF was used as a positive control; CNTF, induced the phosphorylation on both sites. With both CNTF and Notch activation, phosphorylation peaked at around 30 min. STAT3 phosphorylation on Ser727 following Notch activation was sensitive to the γ-secretase inhibitor DAPT (FIG. 2e). […] In contrast to CNTF, no Tyr705 phosphorylation was detected at any of the doses of Notch receptor ligands.
It was determined that insulin also maintains phosphorylation of serine 727 in STAT3 in foetal neural stem cell cultures.

[3] = tested on: adult rat subventricular zone (SVZ); assay: Dividing (BrdU+) cells in SVZ after single lateral ventricle injection; type: in vivo; details: BrdU for 3 days, sacrificed on the 5th day
Protocol: In vivo, Notch and insulin also increase the number of dividing cells in the adult rat subventricular zone (SVZ) 5 days after a single injection It was determined that Notch and insulin co-operate to promote new (BrdU+) cells in vivo. Specifically, the reagents infused in the lateral ventricle of adult rats as a single injection. The rats were then given BrdU for 3 days and sacrificed on the 5th day (Table 10).

IGF1/insulin receptor = IGF1/insulin receptor phosphorylation in foetal NSC cultures; type: cell-based, mouse
Protocol: Specifically, D114 induced the phosphorylation of IGF1/insulin receptor. Peak phosphorylation occurred at 2-5 minutes.
as §1

[4] = tested on: E13.5 cortical embryonic mouse CNS stem cells; assay: CNS stem cell plating efficiency / colony formation / survival; type: cell-based; details: 5 days, versus FGF2 control; CNTF low 0.01, 0.1 ng/ml or high 20 ng/ml with JAK inhibitor
Protocol: Cell culture: E13.5 cortical embryonic mouse and adult rat subventricular zone CNS stem cells were grown as previously described (Johe et al., Genes Dev 10:3129-40, 1996; Rajan et al., J Neurosci 18:3620-9, 1998). Cells were expanded in serum-free DMEM/F12 medium with N2 supplement with FGF2 (20 ng/ml) for 5 days and were re-plated at 1000-10,000 cells per cm^2. FGF2 was included throughout our experiments, unless otherwise stated.
To explore these paradoxical observations, CNS stem cell cultures from mid-gestation (embryonic day 13.5) mouse dorsal telencephalon were treated with soluble Notch ligands. […] Following initial passaging, the cells were plated at a density of 1000 cells/cm^2, cultured for 5 days in the presence of FGF2, and colony numbers, sizes, and BrdU incorporation (after a 4 hour BrdU pulse) were enumerated. Notch activation by Jagged-1 or Delta-4 (200 ng/ml) increased the number of colonies generated in vitro by over 3-fold (FIG. 1a). […] The effects of Notch activation were most dramatic when treatments were initiated at the start of the culture.
Insulin in the medium is also thought to promote cell survival. […] Seeding cells in the absence of insulin caused the plating efficiency measured at five days to drop to 29.9%±37.9 (FIG. 1e). Delta-4 was able to compensate for the lack of insulin in the medium, and restored plating efficiency (125%±19.4). Because Notch activation improved survival, activation of Akt, a ser/threonine kinase known to be involved in cell survival, was assayed. Notch activation rapidly (5 minutes) promoted the phosphorylation of Akt on Ser473 and […] in both the presence and absence of insulin (FIG. 1f).

[5] = tested on: p38, SMAD1/5/8, MSK-1, STAT3 phosphorylation in hES cells; assay: Signalling immunoblots in hES cells
Protocol: Immunoblotting: Immunoblotting was performed as previously described (Panchision et al., Genes Dev 15:2094-110, 2001). The following antibodies were used in the experiments described below: pSer473-Akt (92715), pSer308-Akt (9275), pSer2448-mTOR (29715), pThr180/Tyr182-p38 (9211), pSMAD1/5/8 (9511) from Cell Signaling; STAT3 (482), pSer727-STAT3 (8001-R), pTyr705-STAT3 (7993) from Santa Cruz; Sonic Hedgehog (R&D, AF464), nucleostemin (McKay Lab), Hes3 (Chemicon, AB5706), α-tubulin (Sigma, T-6074).
To determine whether in the hES system JAK inhibition reduced p38 activity, cells were treated in the absence of MEF with JAK inhibitor for different times and assayed for p38 phosphorylation.

HSF6 hES cells = assay: hES single cell plating efficiency, HSF-6; type: cell-based, human; details: one week treatment
Source text: The human ES cell lines HSF-6 (University of California, San Francisco; NIH # UC06, Passage 38-120) and H1 and H9 (WiCell Research Institute, NIH # WA01 and […]) were maintained on mouse embryonic fibroblasts (MEF) according to the suppliers' protocols. Immunocytochemistry and FACS analysis for the expression of Oct4 and SSEA4 and SKY karyotyping established that the starting cells are undifferentiated and have a normal set of chromosomes. For single cell survival experiments, hES colonies were harvested after treatment with 1.5 mg/ml collagenase type IV (Invitrogen), separated from the MEF feeder cells by repeated washing by gravity, gently triturated to break up colonies into small aggregates, further dissociated into a single cell solution by trypsination (0.05% trypsin/0.04% EDTA) and transferred on MEF feeder cells at a density of 10000 cells/ml. Oct-4 positive colonies were counted six days after plating. […]
The pro-survival effects of activation of Notch and inhibition of JAK was tested on HSF-6 (NIH code UC06, http://escell.ucsf.edu), H1 (NIH code WA01, www.wicell.org) and H9 (NIH code WA09, www.wicell.org) hES cells. Singly dissociated hES cells were plated on mouse embryo fibroblasts (MEFs), treated daily for one week and colony numbers counted. […]

mES (D3) cells = assay: mES cell plating efficiency, Oct4 and STAT3 phosphorylation in the presence of LIF; type: cell-based, mouse
Source text: FIGS. 10a-10c are a set of images showing JAK inhibition reduces the phosphorylation of STAT3 on Ser727 in mES cell cultures. […] Very low levels of phosphorylated p38 were detectable under all conditions. […] Self-renewal of mES cells correlated with Ser727 phosphorylation.
mES (D3) cells were obtained from ATCC and were maintained in feeder-free cultures on gelatin-coated plates supplemented with 1400 units/ml LIF.
There is great interest in conditions that support the growth of mouse and human ES cells. In contrast to CNS SC (FIG. 2, FIG. 3) and hES SC (se below), the growth of undifferentiated mouse ES cells depends on the stimulation of the JAK/STAT pathway and STAT3 phosphorylation on Tyr705 has been specifically shown to be essential for self-renewal of mouse ES cells (Niwa et al., Genes Dev 12:2048-60, 1998; Matsuda et al., Embo J 18:4261-9, 1999). Ligands that stimulate the JAK/STAT pathway cause human ES cells to differentiate (Daheron et al., Stem Cells 22:770-8, 2004; Humphrey et al., Stem Cells 22:522-30, 2004). It was determined if the Notch/sSTAT survival pathway is present in mouse or human ES cells.

[6] = Insulin withdrawal, 2 days and then treat for 1 h

| Compound | Notch ICD (Notch1; +Ins, no withdrawal) | Notch ICD (Notch1; [6]) | Cell # [1] | Cell # [2] | STAT3-S727 (STAT3; +Ins, 2 days) | STAT3-Y705 (STAT3; +Ins, 2 days) | STAT3-S727 (STAT3; −Ins, 2 days→ +Ins, 1 hour) | STAT3-Y705 (STAT3; −Ins, 2 days→ +Ins, 1 hour) | Cell # [3] | pIGF1 (19H7) (IGF1/insulin receptor; +Ins, no withdrawal) | pIGF1 (3021) (IGF1/insulin receptor; +Ins, no withdrawal) | pIGF1 (19H7) (IGF1/insulin receptor; [6]) | pIGF1 (3021) (IGF1/insulin receptor; [6]) | CNS stem cell survival / plating efficiency [4] | STAT3 phosphorylation on Ser727 [5] | phosphorylation of MSK-1 kinase [5] | phosphorylation of SMAD 1/5/8 [5] | human ES cell survival (HSF6 hES cells) | Oct4 expression (mES (D3) cells; five day treatments in the presence of LIF) | cell survival in a plating efficiency assay (mES (D3) cells; in the presence of LIF) |
| --- | --- | --- | --- | --- | --- | --- | --- | --- | --- | --- | --- | --- | --- | --- | --- | --- | --- | --- | --- | --- |
| Ins: insulin in the culture medium or infused | High | High | Medium | Medium | High | No signal | High | No signal | Medium | High | High | High | High | – | – | – | – | – | – | – |
| C[S+]([O-])c1ccc(-c2nc(-c3ccc(F)cc3)c(-c3ccncc3)[nH]2)cc1 (centres unmarked) [p38 inhibitor, 4-(4-Fluorophenyl)-2-(4-methylsulfinylphenyl)-5-(4-pyridyl)1H-imidazole] | – | – | – | – | – | – | – | – | – | – | – | – | – | enhanced survival to a similar extent to the JAK inhibitor | stimulated STAT3 phosphorylation on Ser727 | reduced the phosphorylation of MSK-1 kinase | reduced in a time-dependent manner | stimulated human ES cell survival | did not affect Oct4 expression | did not significantly alter cell survival |
